Source: US20250312258A1, “2,3-PYRROLIDINEDIONE CONJUGATES AND METHODS OF USING THEREOF” (North Carolina State University, priority 2022, published 2025)
In brackets after ≈: the same amount, converted by molar mass.

Legend:
S. aureus 25923 = assay: Broth microdilution MIC, S. aureus 25923; assay type: cell-based, Staphylococcus aureus; details: Staphylococcus aureus, 25923; read-out: MIC (S. aureus 25923)
MRSA 33591 = assay: Broth microdilution MIC, MRSA 33591; assay type: cell-based; details: Staphylococcus aureus, read-out: MIC (MRSA 33591)
S. aureus 29213 = assay: Broth microdilution MIC, S. aureus 29213; assay type: cell-based, Staphylococcus aureus; details: Staphylococcus aureus, 29213; read-out: MIC (S. aureus 29213)
VRSA = assay: MIC against VRSA (Table 2); assay type: cell-based; details: Staphylococcus aureus, read-out: MIC (VRSA)
S. aureus VRS-2 = assay: VRSA thigh infection model in neutropenic mice; assay type: in vivo, mouse; details: 50 mg/kg PO BID q12h, 26 h post-infection, p<0.05
Experimental: (§1) FIG. 8 is a plot comparing the efficacy of linezolid, Compound 4 (AV-0273), and Compound 8 (AV-0267) in the S. aureus VRS-2 thigh infection model, CFU/g thigh. Test animals were rendered neutropenic with cyclophosphamide administration, 150 mg/kg on Day −4 then 100 mg/kg on Day −1 prior to infection on Day 0. On Day 0, animals were intramuscularly inoculated with 8.4×10^4 CFU/mouse (0.1 mL/animal) of the S. aureus VRS-2 strain. The vehicle and the test articles, Compound 4 (AV-0273) and Compound 8 (AV-0267), both at 100 mg/kg, were each intraperitoneally (IP) administered twice with a 12 h interval (BID q12h) at 2 and 14 h after infection. The reference standard, linezolid at 50 mg/kg, was orally (PO) administered BID q12 h starting at 2 h post-infection. Animals were sacrificed at 2 or 26 h post-infection, and the thigh tissues were harvested and weighed from each of the test animals. The bacterial counts (CFU/g thigh) of thigh tissue homogenates were measured.
as §1, with “FIG. 9” for “FIG. 8”, “of linezolid” for “of linezolid,”, “CFU/g thigh, change in bacterial counts relative to baseline count at 26h post-infection. Data represent the change in bacterial counts in thigh tissue following test article treatment relative to the initial 2 h CFU/g thigh or CFU/thigh at the time of dosing (baseline counts).” for “CFU/g thigh.”, “(BID q12 h)” for “(BID q12h)”, “(CFU/g thigh and CFU/thigh)” for “(CFU/g thigh)”, “were compared.” for “were measured.”
Example vancomycin-2,3-pyrrolidinediones conjugates were evaluated using an in vivo tissue infection model with vancomycin resistant MRSA:
Animal model: Murine thigh infection
Bacteria: VRSA (VRS-2). Gram Positive, Staphylococcus aureus (VRSA, VRS-2), Mouse Infected Thigh Model. VRS-2 is VanA producing SCC Mec II st5 train.
Vancomycin conjugates dose: 100 mg/Kg intraperitoneally (IP).
Application: This model assesses the antimicrobial efficacy of test articles in a tissue infection model with vancomycin resistant MRSA. Microbial counts are measured. […]

SMILES	MIC (S. aureus 25923) [µg/mL]	MIC (MRSA 33591) [µg/mL]	MIC (S. aureus 29213) [µg/mL]	MIC (VRSA) [µg/mL]	reduction in bacterial counts compared to the vehicle control group (S. aureus VRS-2) [%]
CCC1C(c2ccc(C(F)(F)F)cc2)=C(O)C(=O)N1CCCCCCNC (stereo not shown) [Compound 3]	2 (≈ 5.2 µM)	2 (≈ 5.2 µM)	2 (≈ 5.2 µM)		
CCC1C(c2ccc(C(F)(F)F)cc2)=C(O)C(=O)N1CCOCCNC (stereo not shown) [Compound 6]	1 (≈ 2.69 µM)		1 (≈ 2.69 µM)		
CCC1C(c2ccc(C(F)(F)F)cc2)=C(O)C(=O)N1CCOCCOCCOCCNC (stereo not shown) [Compound 7]	2 (≈ 4.34 µM)	1 (≈ 2.17 µM)	1 (≈ 2.17 µM)	4 (≈ 8.69 µM)	
CCC1C(c2ccc(C(F)(F)F)cc2)=C(O)C(=O)N1CCCNCCCCNCCCNC (stereo not shown) [Compound 9b]	0.5 to 1 (≈ 1.06 to 2.13 µM)	1 (≈ 2.13 µM)	1 (≈ 2.13 µM)		
CC(=O)NC[C@H]1CN(c2ccc(N3CCOCC3)c(F)c2)C(=O)O1 [Linezolid, reference compound]					100

More lines, in order of falling MIC (S. aureus 25923), values ahead:

MIC (S. aureus 25923) [µg/mL]	MIC (MRSA 33591) [µg/mL]	MIC (S. aureus 29213) [µg/mL]	MIC (VRSA) [µg/mL]	SMILES	reduction in bacterial counts compared to the vehicle control group (S. aureus VRS-2) [%]
16 (≈ 23.9 µM)	8 (≈ 12 µM)	8 (≈ 12 µM)		CCC1C(c2ccc(C(F)(F)F)cc2)=C(O)C(=O)N1CCN(CCNC)CCN1C(=O)C(O)=C(c2ccc(C(F)(F)F)cc2)C1CC (stereo not shown) [Compound 10]	
2 (≈ 5.61 µM)	2 (≈ 5.61 µM)	1 (≈ 2.81 µM)		CCC1C(c2ccc(C(F)(F)F)cc2)=C(O)C(=O)N1CCCCNC (stereo not shown) [Compound 2]	
2 (≈ 5.31 µM)	1 (≈ 2.66 µM)	1 (≈ 2.66 µM)		CCC1C(c2ccc(C(F)(F)F)cc2)=C(O)C(=O)N1c1ccc(NC)cc1 (stereo not shown) [Compound 5]	
